Measurements from patent publication US20030215352A1, “Method of controlling microbial contamination” (Church & Dwight Co., Inc., priority 2002, published 2003).
Read-outs that look alike come from different tables or passages of the source.

Legend:
Settings in all cases: 25° C.
[1] = test system: C. albicans
Method: (§1) Absorbent products, of 2 in.×2 in., weighing about 1 gram each, and being of identical construction except that 0%, 2%, 4%, 6%, 8%, 10% and 12% (per gram of product) of sodium bicarbonate was incorporated therein are used for this example. […] Two ml of sterile water was added to each product. Each product was then inoculated with 0.1 ml of one of a bacterium or fungus selected from S. aureus (6.9×10^5 CFU/ml), E. coli (5.4×10^5 CFU/ml), P. aeruginosa (6.9×10^5 CFU/ml), and C. albicans (5×10^5 CFU/ml). Each inoculated product was incubated at 25° C. and kept moist in a petri dish. Microbial numbers were determined on days 7 and 14 Microbial numbers were determined by removing the product from the petri dish and placed in a bag with 9 ml of neutralizer broth, mixed and plated on Leethan Agar. These plates were then incubated for 48-72 hours at 30° C. and colonies on the plates were counted.

[2] = test system: E. coli
Method: as §1

[3] = test system: P. aeruginosa
Method: as §1

[4] = test system: S. aureus
Method: as §1

[5] = Day 7, 2% sodium bicarbonate in absorbent product
[6] = Day 7, 4% sodium bicarbonate in absorbent product
[7] = Day 7, 6% sodium bicarbonate in absorbent product
[8] = Day 7, 8% sodium bicarbonate in absorbent product
[9] = Day 7, 10% sodium bicarbonate in absorbent product
[10] = Day 7, 12% sodium bicarbonate in absorbent product
[11] = Day 14, 2% sodium bicarbonate in absorbent product
[12] = Day 14, 4% sodium bicarbonate in absorbent product
[13] = Day 14, 6% sodium bicarbonate in absorbent product
[14] = Day 14, 8% sodium bicarbonate in absorbent product
[15] = Day 14, 10% sodium bicarbonate in absorbent product
[16] = Day 14, 12% sodium bicarbonate in absorbent product

O=C([O-])O.[Na+] [Sodium Bicarbonate, sodium bicarbonate]
Colony Forming Units/ml C. albicans [1, 5]: 1,800 Colony Forming Units/ml
Colony Forming Units/ml C. albicans [1, 6]: 5 Colony Forming Units/ml
Colony Forming Units/ml C. albicans [1, 7]: <10 Colony Forming Units/ml
Colony Forming Units/ml C. albicans [1, 8]: 70 Colony Forming Units/ml
Colony Forming Units/ml C. albicans [1, 9]: <10 Colony Forming Units/ml
Colony Forming Units/ml C. albicans [1, 10]: 30 Colony Forming Units/ml
Colony Forming Units/ml C. albicans [1, 11]: 15 Colony Forming Units/ml
Colony Forming Units/ml C. albicans [1, 12]: 450 Colony Forming Units/ml
Colony Forming Units/ml C. albicans [1, 13]: <10 Colony Forming Units/ml
Colony Forming Units/ml C. albicans [1, 14]: 3000 Colony Forming Units/ml
Colony Forming Units/ml C. albicans [1, 15]: <10 Colony Forming Units/ml
Colony Forming Units/ml C. albicans [1, 16]: <10 Colony Forming Units/ml
Colony Forming Units/ml E. coli [2, 5]: <10 Colony Forming Units/ml
Colony Forming Units/ml E. coli [2, 6]: <10 Colony Forming Units/ml
Colony Forming Units/ml E. coli [2, 7]: <10 Colony Forming Units/ml
Colony Forming Units/ml E. coli [2, 8]: <10 Colony Forming Units/ml
Colony Forming Units/ml E. coli [2, 9]: <10 Colony Forming Units/ml
Colony Forming Units/ml E. coli [2, 10]: <10 Colony Forming Units/ml
Colony Forming Units/ml E. coli [2, 11]: <10 Colony Forming Units/ml
Colony Forming Units/ml E. coli [2, 12]: <10 Colony Forming Units/ml
Colony Forming Units/ml E. coli [2, 13]: <10 Colony Forming Units/ml
Colony Forming Units/ml E. coli [2, 14]: <10 Colony Forming Units/ml
Colony Forming Units/ml E. coli [2, 15]: <10 Colony Forming Units/ml
Colony Forming Units/ml E. coli [2, 16]: <10 Colony Forming Units/ml
Colony Forming Units/ml P. aeruginosa [3, 5]: <10 Colony Forming Units/ml
Colony Forming Units/ml P. aeruginosa [3, 6]: <10 Colony Forming Units/ml
Colony Forming Units/ml P. aeruginosa [3, 7]: 50 Colony Forming Units/ml
Colony Forming Units/ml P. aeruginosa [3, 8]: 150 Colony Forming Units/ml
Colony Forming Units/ml P. aeruginosa [3, 9]: <10 Colony Forming Units/ml
Colony Forming Units/ml P. aeruginosa [3, 10]: <10 Colony Forming Units/ml
Colony Forming Units/ml P. aeruginosa [3, 11]: 15 Colony Forming Units/ml
Colony Forming Units/ml P. aeruginosa [3, 12]: <10 Colony Forming Units/ml
Colony Forming Units/ml P. aeruginosa [3, 13]: <10 Colony Forming Units/ml
Colony Forming Units/ml P. aeruginosa [3, 14]: <10 Colony Forming Units/ml
Colony Forming Units/ml P. aeruginosa [3, 15]: <10 Colony Forming Units/ml
Colony Forming Units/ml P. aeruginosa [3, 16]: <10 Colony Forming Units/ml
Colony Forming Units/ml S. aureus [4, 5]: <10 Colony Forming Units/ml
Colony Forming Units/ml S. aureus [4, 6]: <10 Colony Forming Units/ml
Colony Forming Units/ml S. aureus [4, 7]: <10 Colony Forming Units/ml
Colony Forming Units/ml S. aureus [4, 8]: <10 Colony Forming Units/ml
Colony Forming Units/ml S. aureus [4, 9]: 5 Colony Forming Units/ml
Colony Forming Units/ml S. aureus [4, 10]: <10 Colony Forming Units/ml
Colony Forming Units/ml S. aureus [4, 11]: <10 Colony Forming Units/ml
Colony Forming Units/ml S. aureus [4, 12]: <10 Colony Forming Units/ml
Colony Forming Units/ml S. aureus [4, 13]: <10 Colony Forming Units/ml
Colony Forming Units/ml S. aureus [4, 14]: 10 Colony Forming Units/ml
Colony Forming Units/ml S. aureus [4, 15]: <10 Colony Forming Units/ml
Colony Forming Units/ml S. aureus [4, 16]: <10 Colony Forming Units/ml
